Test [1] addresses T1, Pseudomonas aeruginosa LpxC enzyme (Pseudomonas aeruginosa, UniProt P47205).
T1 construct: made in house; host or cells: E. coli
T1 sequence (P47205 1-303): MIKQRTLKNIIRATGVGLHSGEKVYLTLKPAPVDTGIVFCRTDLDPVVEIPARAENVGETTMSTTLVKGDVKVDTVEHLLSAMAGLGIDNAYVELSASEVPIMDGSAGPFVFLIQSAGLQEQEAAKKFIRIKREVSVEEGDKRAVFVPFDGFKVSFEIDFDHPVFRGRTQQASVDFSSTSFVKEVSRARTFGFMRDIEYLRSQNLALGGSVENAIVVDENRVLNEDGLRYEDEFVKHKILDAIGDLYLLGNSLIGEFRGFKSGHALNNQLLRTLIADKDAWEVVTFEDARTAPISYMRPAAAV
Nature of the test: IC50 assay, LpxC enzyme from P. aeruginosa (BioTrove RapidFire mass spectrometry). It counts as biochemical. The procedure, abridged: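 P. aeruginosa LpxC reaction run 1 hour, stopped with 1 N HCl, and substrate-to-product conversion quantified by RapidFire mass spectrometry. IC50 calculated from percent conversion using a no-enzyme control.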

For test [2], the system named is Acinetobacter baumannii/haemolyticus: Multidrug-resistant clinical isolate (AB-3167). Nature of the test: MIC determination (CLSI), AB-3167. It counts as cell-based. Particulars: Acinetobacter baumannii/haemolyticus multidrug-resistant clinical isolate; overnight incubation; lower of duplicate values; read-out: AB-3167 (MIC). The procedure, abridged: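 Broth dilution MIC per CLSI M7-A8, 2-fold concentration steps, overnight incubation, visual read of lowest concentration inhibiting growth versus drug-free control. Tested in duplicate; lower value reported if within 2-fold, otherwise repeated; QC organisms and reference drugs required within range.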

Test [3] deals with Pseudomonas aeruginosa UI-18: Wild-type (PA-7). Nature of the test: MIC determination (CLSI), PA-7. Type of test: cell-based. The settings on record: Pseudomonas aeruginosa UI-18 wild-type; overnight incubation; lower of duplicate values; read-out: PA-7 (MIC). In outline:
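Broth dilution MIC per CLSI M7-A8, using 2-fold compound dilutions incubated overnight; MIC is the lowest concentration with no visible growth versus the drug-free control. Run in duplicate, lower value reported when within 2-fold. Control organisms and reference compounds were included for QC.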

Test [4] concerns Escherichia coli EC-1: VOGEL, mouse virulent. Nature of the test: MIC determination (CLSI), EC-1. Type of test: cell-based. The settings on record: Escherichia coli, read-out: EC-1 (MIC). The procedure, abridged: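 Broth dilution MIC per CLSI M7-A8, with 2-fold compound dilutions incubated overnight with a standard inoculum. MIC is the lowest concentration visibly inhibiting growth versus drug-free control; tested in duplicate, reporting the lower value when within 2-fold, with QC organisms and reference compounds required in range.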

For test [5], the system named is Klebsiella pneumoniae: Ciprofloxacin-resistant isolate, expresses ESBL, clinical isolate (KP-3700). Nature of the test: MIC determination (CLSI), KP-3700. Type of test: cell-based. The settings on record: overnight incubation, lower of duplicate values. The procedure, abridged: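 Broth dilution MIC per CLSI M7-A8 against the ciprofloxacin-resistant, ESBL-expressing clinical isolate, 2-fold concentration steps, overnight incubation, visual read of lowest growth-inhibiting concentration. Tested in duplicate; lower value reported when within 2-fold; control organisms and reference compounds required within range.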

Setting [6] is: P. aeruginosa LpxC enzyme 0.1 nM, 25° C., 1 hour, pH 8.0, read-out: PA: IC50.

Converted amounts (≈) assume the structure as drawn. Where two headings read alike, the source gives them in different places. Some results are limits rather than exact numbers.

For the compound `Cc1c(-c2ccccc2)nnn1CC[C@](C)(C(=O)NO)S(C)(=O)=O` [Example 15, (2R)—N-hydroxy-2-methyl-4-(5-methyl-4-phenyl-1H-1,2,3-triazol-1-yl)-2-(methylsulfonyl)butanamide], the IC50 in test [1] (setting [6]) is 21.3 nM. Moreover, the values for the MIC in test [2], in test [3] and in test [4] were over 64 µg/mL, 32 µg/mL (≈ 90.8 µM) and over 64 µg/mL, respectively. In addition, the “KP-3700 (MIC)” value in test [5] is over 64.0 µg/mL.
In the case of `C[C@@](CCn1cc(-c2ccccc2)nn1)(C(=O)NO)S(C)(=O)=O` [Example 14, (2R)—N-hydroxy-2-methyl-2-(methylsulfonyl)-4-(4-phenyl-1H-1,2,3-triazol-1-yl)butanamide], in test [1], the half-inhibitory concentration (IC50) amounted to 0.85 nM. Further, the minimal inhibitory concentration (MIC) in test [2] was over 64 µg/mL; in test [3], 2 µg/mL (≈ 5.91 µM); in test [4], 32 µg/mL (≈ 94.6 µM). Moreover, the “KP-3700 (MIC)” value in test [5] worked out at 32 µg/mL.
For `CC(CCn1cc(-c2ccc(-c3cnco3)cc2)cn1)(C(=O)NO)S(C)(=O)=O` (stereo not drawn) [Example 72, N-hydroxy-2-methyl-2-(methylsulfonyl)-4-{4-[4-(1,3-oxazol-5-yl)phenyl]-1H-pyrazol-1-yl}butanamide], the IC50 in test [1] (setting [6]) came out at 0.373 nM. The minimal inhibitory concentration (MIC) in test [2] is over 64 µg/mL; in test [3], 2 µg/mL (≈ 4.95 µM); in test [4] it was 4 µg/mL (≈ 9.89 µM). Besides, the “KP-3700 (MIC)” value in test [5] amounted to 16 µg/mL.
On the same counts, the results for `CC(C)c1ccccc1SCc1cn(CCC(C)(C(=O)NO)S(C)(=O)=O)nn1` (stereo not drawn) [Example 31, N-hydroxy-2-methyl-2-(methylsulfonyl)-4-[4-({[2-(propan-2-yl)phenyl]sulfanyl}methyl)-1H-1,2,3-triazol-1-yl]butanamide] are 303 nM, over 64 µg/mL, over 64 µg/mL, over 64 µg/mL and over 64.0 µg/mL.
The like results for `CC(CCn1cc(CSc2ccc(Cl)cc2)nn1)(C(=O)NO)S(C)(=O)=O` (stereo not drawn) [Example 29, 4-(4-{[(4-chlorophenyl)sulfanyl]methyl}-1H-1,2,3-triazol-1-yl)-N-hydroxy-2-methyl-2-(methylsulfonyl)butanamide] were, in that order, 8.82 nM, over 64 µg/mL, 32 µg/mL (≈ 76.4 µM), over 64 µg/mL and over 64.0 µg/mL.
As for `CC(CCn1cc(-c2ccc(-c3csnn3)cc2)cn1)(C(=O)NO)S(C)(=O)=O` (stereo not drawn) [Example 90, N-hydroxy-2-methyl-2-(methylsulfonyl)-4-{4-[4-(1,2,3-thiadiazol-4-yl)phenyl]-1H-pyrazol-1-yl}butanamide], the half-maximal inhibitory concentration (IC50) in test [1] (setting [6]) is 1.23 nM. Also, the minimal inhibitory concentration (MIC) in test [2] was over 64 µg/mL; in test [3], 4 µg/mL (≈ 9.49 µM); in test [4], 16 µg/mL (≈ 38 µM). Also, in test [5], the “KP-3700 (MIC)” value came out at 64 µg/mL.
On the same counts, the results for `Cc1nccc(-c2ccc(-c3cnn(CCC(C)(C(=O)NO)S(C)(=O)=O)c3)cc2)n1` (stereo not drawn) [Example 92, N-hydroxy-2-methyl-4-{4-[4-(2-methylpyrimidin-4-yl)phenyl]-1H-pyrazol-1-yl}-2-(methylsulfonyl)butanamide] are 5.49 nM, over 64 µg/mL, 32 µg/mL (≈ 74.5 µM), 32 µg/mL (≈ 74.5 µM) and over 64.0 µg/mL.
On the same counts, the results for `CC(CCn1cc(-c2cccc(OC(F)(F)F)c2)cn1)(C(=O)NO)S(C)(=O)=O` (stereo not drawn) [Example 88, N-hydroxy-2-methyl-2-(methylsulfonyl)-4-{4-[3-(trifluoromethoxy)phenyl]-1H-pyrazol-1-yl}butanamide] are 0.652 nM, 64 µg/mL (≈ 152 µM), 8 µg/mL (≈ 19 µM), 32 µg/mL (≈ 75.9 µM) and over 64.0 µg/mL.
Turning to `COc1cccc(-c2cnn(CCC(C)(C(=O)NO)S(C)(=O)=O)c2)c1` (stereo not drawn) [Example 51, N-hydroxy-4-[4-(3-methoxyphenyl)-1H-pyrazol-1-yl]-2-methyl-2-(methylsulfonyl)butanamide], the IC50 in test [1] (setting [6]) is 7.3 nM. Moreover, the MIC is over 64 µg/mL in test [2], 16 µg/mL (≈ 43.5 µM) in test [3] and over 64 µg/mL in test [4]. In addition, the “KP-3700 (MIC)” value in test [5] was over 64.0 µg/mL.
For `C[C@@](CCn1cc(-c2ccc(Cl)cc2F)nn1)(C(=O)NO)S(C)(=O)=O` [Example 24, (2R)-4-[4-(4-chloro-2-fluorophenyl)-1H-1,2,3-triazol-1-yl]-N-hydroxy-2-methyl-2-(methylsulfonyl)butanamide], in test [1], the midpoint of inhibition, the IC50, lay at 0.657 nM. The values for the minimal inhibitory concentration (MIC) in test [2], in test [3] and in test [4] were over 64 µg/mL, 1 µg/mL (≈ 2.56 µM) and 2 µg/mL (≈ 5.12 µM), respectively. The “KP-3700 (MIC)” value in test [5] came to 4 µg/mL.
Turning to `CC(CCn1cc(-c2ccc(F)cc2F)cn1)(C(=O)NO)S(C)(=O)=O` (stereo not drawn) [Example 55, 4-[4-(2,4-difluorophenyl)-1H-pyrazol-1-yl]-N-hydroxy-2-methyl-2-(methylsulfonyl)butanamide], in test [1] (setting [6]), the half-maximal inhibitory concentration (IC50) came to 2.07 nM. Moreover, the minimal inhibitory concentration (MIC) is over 64 µg/mL in test [2], 2 µg/mL (≈ 5.36 µM) in test [3] and 8 µg/mL (≈ 21.4 µM) in test [4]. Moreover, the “KP-3700 (MIC)” value in test [5] amounted to 64 µg/mL.
On the same counts, the results for `CC(CCn1cc(-c2ccccc2F)cn1)(C(=O)NO)S(C)(=O)=O` (stereo not drawn) [Example 45, 4-[4-(2-fluorophenyl)-1H-pyrazol-1-yl]-N-hydroxy-2-methyl-2-(methylsulfonyl)butanamide] are 2.5 nM, over 64 µg/mL, 2 µg/mL (≈ 5.63 µM), 16 µg/mL (≈ 45 µM) and 64 µg/mL.
On the same counts, the results for `CC(CCn1cc(-c2ccc(C(F)(F)F)cn2)cn1)(C(=O)NO)S(C)(=O)=O` (stereo not drawn) [Example 76, N-hydroxy-2-methyl-2-(methylsulfonyl)-4-{4-[5-(trifluoromethyl)pyridin-2-yl]-1H-pyrazol-1-yl}butanamide] are 37.3 nM, over 64 µg/mL, 64 µg/mL (≈ 157 µM), over 64 µg/mL and over 64.0 µg/mL.
On the same counts, the results for `CC(CCn1cc(-c2cccc(-c3ccno3)c2)cn1)(C(=O)NO)S(C)(=O)=O` (stereo not drawn) [Example 74, N-hydroxy-2-methyl-2-(methylsulfonyl)-4-{4-[3-(1,2-oxazol-5-yl)phenyl]-1H-pyrazol-1-yl}butanamide] are 2.45 nM, over 64 µg/mL, 32 µg/mL (≈ 79.1 µM), over 64 µg/mL and over 64.0 µg/mL.
For the compound `C[C@@](CCn1cc(C#N)cn1)(C(=O)NO)S(C)(=O)=O` [Example 7, (2R)-4-(4-cyano-1H-pyrazol-1-yl)-N-hydroxy-2-methyl-2-(methylsulfonyl)butanamide], the half-maximal inhibitory concentration (IC50) in test [1] (setting [6]) was 620 nM. Also, the minimal inhibitory concentration (MIC) in test [2], in test [3] and in test [4] was over 64 µg/mL each time. Further, the “KP-3700 (MIC)” value in test [5] was over 64.0 µg/mL.
Turning to `Cc1ccc2cc(-c3cnn(CCC(C)(C(=O)NO)S(C)(=O)=O)c3)ccc2n1` (stereo not drawn) [Example 67, N-hydroxy-2-methyl-4-[4-(2-methylquinolin-6-yl)-1H-pyrazol-1-yl]-2-(methylsulfonyl)butanamide], the 50% inhibitory concentration (IC50) in test [1] (setting [6]) was 12.1 nM. Moreover, the MIC in test [2] is over 64 µg/mL; in test [3], 32 µg/mL (≈ 79.5 µM); in test [4] it was over 64 µg/mL. Besides, the “KP-3700 (MIC)” value in test [5] was over 64.0 µg/mL.
On to `COc1ccc(-c2cnn(CCC(C)(C(=O)NO)S(C)(=O)=O)c2)cc1F` (stereo not drawn) [Example 60, 4-[4-(3-fluoro-4-methoxyphenyl)-1H-pyrazol-1-yl]-N-hydroxy-2-methyl-2-(methylsulfonyl)butanamide], for which the half-inhibitory concentration (IC50) in test [1] (setting [6]) is 20.1 nM. For the same compound, the minimal inhibitory concentration (MIC) is over 64 µg/mL in test [2], 8 µg/mL (≈ 20.8 µM) in test [3] and 64 µg/mL (≈ 166 µM) in test [4]. In addition, the “KP-3700 (MIC)” value in test [5] was over 64.0 µg/mL.
For `C[C@@](CCn1cc(-c2ccccc2)cn1)(C(=O)NO)S(C)(=O)=O` [Example 6, (2R)—N-hydroxy-2-methyl-2-(methylsulfonyl)-4-(4-phenyl-1H-pyrazol-1-yl)butanamide], the half-maximal inhibitory concentration (IC50) in test [1] was 1.61 nM. The results for the minimum inhibitory concentration (MIC) in test [2], in test [3] and in test [4] were over 64 µg/mL, 1 µg/mL (≈ 2.96 µM) and 16 µg/mL (≈ 47.4 µM), respectively. For the same compound, the “KP-3700 (MIC)” value in test [5] stood at 64 µg/mL.

Source of the values: patent US8809333B2, “Imidazole, pyrazole, and triazole derivatives useful as antibacterial agents” (Pfizer Inc., priority 2011, dated 2014).
